Laboratory results taken from ChEMBL document CHEMBL4152314, “Symmetrical and unsymmetrical substituted 2,5-diarylidene cyclohexanones as anti-parasitic compounds” (Eur J Med Chem, 2018).

Legend:
Trypanosoma cruzi [1] = assay: Antiparasitic activity against epimastigote form of Trypanosoma cruzi Y assessed as parasite growth inhibition after 96 hrs by Neubauer hemocytometer; format: functional, organism-based
Trypanosoma cruzi [2] = assay: Antiparasitic activity against trypomastigote form of Trypanosoma cruzi assessed as parasite lysis after 24 hrs by Pizzi-Brener method; format: functional, organism-based
Leishmania amazonensis = assay: Antiparasitic activity against promastigote form of Leishmania amazonensis MHOM/BR/Josefa assessed as parasite growth inhibition after 72 hrs by Neubauer hemocytometer; format: functional, organism-based
[3] = Cytotoxicity against African green monkey Vero cells assessed as growth inhibition; format: cell-based; conditions: chlorocebus sabaeus
[4] = Selectivity index, ratio of CC50 for African green monkey Vero cells to IC50 for epimastigote form of Trypanosoma cruzi Y; format: toxicity; conditions: read-out: Ratio CC50/IC50
[5] = Selectivity index, ratio of CC50 for African green monkey Vero cells to IC50 for promastigote form of Leishmania amazonensis MHOM/BR/Josefa; format: toxicity; conditions: read-out: Ratio CC50/IC50
[6] = Selectivity index, ratio of CC50 for African green monkey Vero cells to EC50 for trypomastigote form of Trypanosoma cruzi; format: toxicity; conditions: read-out: Ratio CC50/EC50

Compound | IC50 (Trypanosoma cruzi [1]) | EC50 (Trypanosoma cruzi [2]) | IC50 (Leishmania amazonensis) | CC50 [3] | selectivity ratio [4] | selectivity ratio [5] | selectivity ratio [6]
COc1ccc(/C=C2\CCC/C(=C\c3ccc([N+](=O)[O-])cc3)C2=O)cc1 | > 100 µM | > 100 µM | > 100 µM | 435 µM | – | – | –
O=C(Cn1ccnc1[N+](=O)[O-])NCc1ccccc1 [BENZNIDAZOLE] | 6.5 µM | – | – | – | – | – | –
O=C1/C(=C/c2ccc(Br)cc2)CCC/C1=C\c1ccc(Br)cc1 | 29.3 µM | 49 µM | 4.2 µM | 58 µM | 2 | 13.8 | 1.2
COc1cccc(/C=C2\CCC/C(=C\c3cccc(Br)c3)C2=O)c1OC | 33 µM | 72 µM | 19.8 µM | 31.5 µM | 1 | 1.6 | 0.4
COc1ccc(/C=C2\CCC/C(=C\c3cccc(OC)c3OC)C2=O)cc1OC | 28.5 µM | 23.8 µM | 4.5 µM | 36.1 µM | 1.3 | 8 | 1.5
O=C1/C(=C/c2c(Cl)cccc2Cl)CCC/C1=C\c1c(Cl)cccc1Cl | 83.9 µM | 93.5 µM | 4.9 µM | 574 µM | 6.8 | 117 | 6.1
COc1ccc(/C=C2\CCC/C(=C\c3ccc(OC)cc3)C2=O)cc1 | 63.6 µM | > 100 µM | 33.3 µM | 178 µM | 2.8 | 5.3 | –
COc1cccc(/C=C2\CCC/C(=C\c3ccc([N+](=O)[O-])cc3)C2=O)c1OC | 33.3 µM | 27.7 µM | 3.9 µM | < 10 µM | – | – | –
COc1cccc(/C=C2\CCC/C(=C\c3ccc(Br)cc3)C2=O)c1OC | 35 µM | 77 µM | 20.1 µM | 31.5 µM | 0.9 | 1.6 | 0.4
O=C1/C(=C/c2ccc3c(c2)OCO3)CCC/C1=C\c1ccc2c(c1)OCO2 | > 100 µM | 78 µM | 22 µM | 257 µM | – | 11.7 | 3.3
O=C1/C(=C/c2ccccc2Cl)CCC/C1=C\c1ccccc1Cl | 27.8 µM | 36.2 µM | 4.6 µM | 30.6 µM | 1.1 | 6.7 | 0.8
COc1cccc(/C=C2\CCCCC2=O)c1OC | > 100 µM | > 100 µM | > 100 µM | 720 µM | – | – | –
COc1ccc(/C=C2\CCC/C(=C\c3ccc(N(C)C)cc3)C2=O)cc1 | > 100 µM | > 100 µM | 91 µM | 392 µM | – | 4.3 | –
COc1cc(/C=C/C(=O)CC(=O)/C=C/c2ccc(O)c(OC)c2)ccc1O [CURCUMIN] | 67.3 µM | 15 µM | > 100 µM | 36.8 µM | 0.5 | – | 2.5
O=C1/C(=C/c2cccc(Br)c2)CCC/C1=C\c1cccc(Br)c1 | 33.3 µM | 63.2 µM | 2.3 µM | 35.9 µM | 1.1 | 15.6 | 0.6
COc1ccc(/C=C2\CCC/C(=C\c3ccc(Br)cc3)C2=O)cc1 | 55 µM | > 100 µM | 17.3 µM | 250 µM | 4.5 | 14.5 | –
COc1ccc(/C=C2\CCCCC2=O)cc1 | 54.8 µM | > 100 µM | 54 µM | 194 µM | 3.5 | 3.6 | –

Second part, led by results:

IC50 (Trypanosoma cruzi [1]) | EC50 (Trypanosoma cruzi [2]) | Compound | IC50 (Leishmania amazonensis) | CC50 [3] | selectivity ratio [4] | selectivity ratio [5] | selectivity ratio [6]
26.5 µM | > 100 µM | COc1cc([N+](=O)[O-])ccc1/C=C1\CCC/C(=C\c2cccc(OC)c2OC)C1=O | 4.8 µM | 120 µM | 4.5 | 25 | –
20.2 µM | > 100 µM | COc1ccc(/C=C2\CCC/C(=C\c3cccc(Br)c3)C2=O)cc1 | 5.7 µM | 30 µM | 1.5 | 5.3 | –
26.6 µM | > 100 µM | COc1ccc(/C=C2\CCC/C(=C\c3ccccc3Cl)C2=O)cc1 | 13 µM | 238 µM | 8.9 | 18.3 | –
24.4 µM | 70.2 µM | COc1cccc(/C=C2\CCC/C(=C\c3ccc(F)cc3)C2=O)c1OC | 4.7 µM | 33.2 µM | 1.4 | 7.1 | 0.5
25.8 µM | 60 µM | COc1cccc(/C=C2\CCC/C(=C\c3ccccc3)C2=O)c1OC | 16.7 µM | 33.5 µM | 1.3 | 2 | 0.6
24.7 µM | 68.7 µM | O=C1/C(=C/c2ccc(F)cc2)CCC/C1=C\c1ccc(F)cc1 | 4.3 µM | 34.4 µM | 1.4 | 8 | 0.5
21 µM | > 100 µM | COc1ccc(/C=C2\CCC/C(=C\c3ccc(F)cc3)C2=O)cc1 | 10.8 µM | 378 µM | 18 | 35 | –
3 µM | 30.2 µM | COc1cccc(/C=C2\CCC/C(=C\c3cc(OC)c(OC)c(OC)c3)C2=O)c1OC | 2.6 µM | 29.3 µM | 9.8 | 11.3 | 1
23.6 µM | 27 µM | COc1cccc(/C=C2\CCC/C(=C\c3cccc(OC)c3OC)C2=O)c1OC | 4.1 µM | 24.9 µM | 1.1 | 6.1 | 0.9
18.4 µM | 76.2 µM | O=C1/C(=C/c2ccccc2)CCC/C1=C\c1ccccc1 [2,6-DIBENZYLIDENECYCLOHEXANONE] | 2.8 µM | 40.6 µM | 2.2 | 14.5 | 0.5
13.6 µM | > 100 µM | COc1ccc(/C=C2\CCC/C(=C\c3ccccc3F)C2=O)cc1 | 9 µM | 270 µM | 19.8 | 29.9 | –
21.6 µM | > 100 µM | COc1ccc(/C=C2\CCC/C(=C\c3ccc(Cl)cc3)C2=O)cc1 | 17.8 µM | 401 µM | 18.6 | 22.5 | –
16.2 µM | 85.3 µM | O=C1/C(=C/c2ccc(Cl)cc2)CCC/C1=C\c1ccc(Cl)cc1 | 3.6 µM | 32.1 µM | 2 | 8.9 | 0.4
9.5 µM | 69.5 µM | COc1cc(/C=C2\CCC/C(=C\c3cc(OC)c(OC)c(OC)c3)C2=O)cc(OC)c1OC | 17 µM | 155 µM | 16.3 | 9.1 | 2.2
20.5 µM | 54.2 µM | COc1ccc(/C=C2\CCC/C(=C\c3c(Cl)cccc3Cl)C2=O)cc1 | 5.2 µM | 232 µM | 11.3 | 44.6 | 4.3
26.2 µM | 35 µM | COc1cccc(/C=C2\CCC/C(=C\c3c(Cl)cccc3Cl)C2=O)c1OC | 3.7 µM | 160 µM | 6.1 | 43.3 | 4.6
20.6 µM | > 100 µM | COc1ccc(/C=C2\CCC/C(=C\c3ccccc3)C2=O)cc1 | 11.8 µM | 291 µM | 14.1 | 24.6 | –
26.1 µM | 82 µM | COc1cccc(/C=C2\CCC/C(=C\C(C)Cc3ccc4c(c3)OCO4)C2=O)c1OC (stereo not drawn) | 10 µM | 178 µM | 6.8 | 17.8 | 2.2
5.2 µM | 27.4 µM | COc1ccc(/C=C2\CCC/C(=C\c3cccc(OC)c3OC)C2=O)cc1 | 8.9 µM | 401 µM | 77.2 | 45.1 | 14.6
